Source: ChEMBL document CHEMBL1201862, “PubChem BioAssay data set” (2004)
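Cells were grown in 96-well plates and exposed to each compound for 48 hours at five concentrations; endpoints were interpolated linearly between bracketing concentrations, or set to the highest concentration if not reached. The concentration for 50% growth inhibition is given as GI50.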 Active and inactive are the calls of the source. No stated cut-off is given here; in the data, active = GI50 up to about 1.1 µM and inactive = higher.

How the values were obtained:
Test in all cases: NCI anticancer screen, dose series, 48 h
[1] = test system: 786-0
[2] = test system: A498
[3] = test system: A549
[4] = test system: ACHN
[5] = test system: BT-549
[6] = test system: CAKI-1
[7] = test system: CCRF-CEM
[8] = test system: COLO 205
[9] = test system: DU-145
[10] = test system: EKVX
[11] = test system: HCC 2998
[12] = test system: HCT-116
[13] = test system: HCT-15
[14] = test system: HL-60
[15] = test system: HOP-62
[16] = test system: HOP-92
[17] = test system: HT-29
[18] = test system: Hs-578T
[19] = test system: IGROV-1
[20] = test system: K562
[21] = test system: KM12
[22] = test system: LOX IMVI
[23] = test system: M14
[24] = test system: MCF7
[25] = test system: MDA-MB-231
[26] = test system: MDA-MB-435
[27] = test system: MOLT-4
[28] = test system: NCI-H226
[29] = test system: NCI-H23
[30] = test system: NCI-H522
[31] = test system: NCI/ADR-RES
[32] = test system: OVCAR-3
[33] = test system: OVCAR-4
[34] = test system: OVCAR-5
[35] = test system: OVCAR-8
[36] = test system: PC-3
[37] = test system: RPMI-8226
[38] = test system: RXF 393
[39] = test system: SF-268
[40] = test system: SF-295
[41] = test system: SF-539
[42] = test system: SK-MEL-28
[43] = test system: SK-MEL-2
[44] = test system: SK-MEL-5
[45] = test system: SK-OV-3
[46] = test system: SN12C
[47] = test system: SNB-19
[48] = test system: SNB-75
[49] = test system: SR
[50] = test system: SW-620
[51] = test system: T47D
[52] = test system: TK-10
[53] = test system: U-251
[54] = test system: UACC-257
[55] = test system: UACC-62
[56] = test system: UO-31
[57] = test system: Malme-3M
[58] = test system: NCI-H460

For `O=C(Nc1ccccc1C(=O)NCc1ccccc1)/C(=C/c1ccccc1)NC(=O)c1ccccc1`, the GI50 [1] was 47.6 µM (inactive), the GI50 [2] was > 100 µM (inactive) and the GI50 [3] was > 100 µM (inactive). For the same compound, the GI50 [4] was > 100 µM (inactive), the GI50 [5] was > 100 µM (inactive) and the GI50 [6] was > 100 µM (inactive). The GI50 [7] was > 100 µM (inactive), the GI50 [8] was > 100 µM (inactive) and the GI50 [9] was > 100 µM (inactive). For the same compound, the GI50 [10] was > 100 µM (inactive), the GI50 [11] was > 100 µM (inactive) and the GI50 [12] was > 100 µM (inactive). The GI50 [13] was over 100 µM, the GI50 [14] was > 100 µM (inactive) and the GI50 [15] was > 100 µM (inactive). For the same compound, the GI50 [16] was > 100 µM (inactive), the GI50 [17] was > 100 µM (inactive) and the GI50 [18] was 63.1 µM (inactive). The GI50 [19] was > 100 µM (inactive), the GI50 [20] was > 100 µM (inactive) and the GI50 [21] was > 100 µM (inactive). The GI50 [22] was > 100 µM (inactive), the GI50 [23] was > 100 µM (inactive) and the GI50 [24] was > 100 µM (inactive). For the same compound, the GI50 [25] was > 100 µM (inactive), the GI50 [26] was > 100 µM (inactive) and the GI50 [27] was 80.7 µM (inactive). The GI50 [28] was > 100 µM (inactive), the GI50 [29] was > 100 µM (inactive) and the GI50 [30] was > 100 µM (inactive). For the same compound, the GI50 [31] was 62.2 µM (inactive), the GI50 [32] was > 100 µM (inactive) and the GI50 [33] was 49.3 µM (inactive). For the same compound, the GI50 [34] was > 100 µM (inactive), the GI50 [35] was > 100 µM (inactive) and the GI50 [36] was > 100 µM (inactive). The GI50 [37] was > 100 µM (inactive), the GI50 [38] was > 100 µM (inactive) and the GI50 [39] was > 100 µM (inactive). The GI50 [40] was > 100 µM (inactive), the GI50 [41] was > 100 µM (inactive) and the GI50 [42] was > 100 µM (inactive). The GI50 [43] was > 100 µM (inactive), the GI50 [44] was > 100 µM (inactive) and the GI50 [45] was > 100 µM (inactive). For the same compound, the GI50 [46] was > 100 µM (inactive), the GI50 [47] was > 100 µM (inactive) and the GI50 [48] was 92.7 µM (inactive). For the same compound, the GI50 [49] was > 100 µM (inactive), the GI50 [50] was > 100 µM (inactive) and the GI50 [51] was > 100 µM (inactive). For the same compound, the GI50 [52] was > 100 µM (inactive), the GI50 [53] was > 100 µM (inactive) and the GI50 [54] was > 100 µM (inactive). For the same compound, the GI50 [55] was > 100 µM (inactive) and the GI50 [56] was > 100 µM (inactive).
`CC1CC(C)(C)CC(OCCN2CCCCC2)(c2ccccc2)C1` (configuration not stated) was tested, and the GI50 [1] was 10.1 µM (inactive), the GI50 [2] was 12.8 µM (inactive) and the GI50 [3] was 11 µM (inactive). The GI50 [4] was 15.9 µM (inactive), the GI50 [5] was 12.7 µM (inactive) and the GI50 [6] was 12.7 µM (inactive). The GI50 [7] was 6.5 µM (inactive), the GI50 [8] was 7.71 µM (inactive) and the GI50 [9] was 6.61 µM (inactive). The GI50 [10] was 5.51 µM (inactive), the GI50 [12] was 4.4 µM (inactive) and the GI50 [13] was 10.2 µM. The GI50 [14] was 11.4 µM (inactive), the GI50 [15] was 13.2 µM (inactive) and the GI50 [16] was 8.17 µM (inactive). For the same compound, the GI50 [17] was 1.89 µM (inactive), the GI50 [18] was 13.3 µM (inactive) and the GI50 [19] was 13.2 µM (inactive). The GI50 [20] was 13 µM (inactive), the GI50 [21] was 7.35 µM (inactive) and the GI50 [22] was 7.13 µM (inactive). For the same compound, the GI50 [23] was 3.21 µM (inactive), the GI50 [24] was 11.2 µM (inactive) and the GI50 [25] was 11.4 µM (inactive). The GI50 [26] was 11.9 µM (inactive), the GI50 [57] was 10.4 µM (inactive) and the GI50 [28] was 20.7 µM (inactive). For the same compound, the GI50 [29] was 10.3 µM (inactive), the GI50 [58] was 4.21 µM (inactive) and the GI50 [30] was 5.87 µM (inactive). The GI50 [31] was 14.4 µM (inactive), the GI50 [32] was 10.4 µM (inactive) and the GI50 [33] was 11.3 µM (inactive). The GI50 [34] was 4.19 µM (inactive), the GI50 [35] was 15.2 µM (inactive) and the GI50 [36] was 12.2 µM (inactive). For the same compound, the GI50 [37] was 4.51 µM (inactive), the GI50 [38] was 10.9 µM (inactive) and the GI50 [39] was 10.8 µM (inactive). The GI50 [40] was 10.7 µM (inactive), the GI50 [41] was 15.6 µM (inactive) and the GI50 [42] was 15.7 µM (inactive). For the same compound, the GI50 [43] was 17.8 µM (inactive), the GI50 [44] was 10 µM (inactive) and the GI50 [45] was 14.7 µM (inactive). For the same compound, the GI50 [46] was 12 µM (inactive), the GI50 [47] was 12.9 µM (inactive) and the GI50 [48] was 15.1 µM (inactive). For the same compound, the GI50 [49] was 4.97 µM (inactive), the GI50 [50] was 13.9 µM (inactive) and the GI50 [51] was 12.9 µM (inactive). The GI50 [52] was 13.3 µM (inactive), the GI50 [53] was 11.6 µM (inactive) and the GI50 [54] was 11.6 µM (inactive). For the same compound, the GI50 [55] was 15.6 µM (inactive) and the GI50 [56] was 7.16 µM (inactive).
`Oc1ccc(CCc2cc(O)cc(O)c2)cc1` [DIHYDRORESVERATROL] was tested, and the GI50 [1] was > 100 µM (inactive), the GI50 [2] was > 100 µM (inactive) and the GI50 [3] was > 100 µM (inactive). The GI50 [4] was 79.4 µM (inactive), the GI50 [5] was > 100 µM (inactive) and the GI50 [6] was > 100 µM (inactive). The GI50 [8] was > 100 µM (inactive), the GI50 [9] was > 100 µM (inactive) and the GI50 [10] was 50.5 µM (inactive). The GI50 [12] was > 100 µM (inactive), the GI50 [13] was 22.7 µM and the GI50 [14] was 50.4 µM (inactive). The GI50 [15] was > 100 µM (inactive), the GI50 [16] was > 100 µM (inactive) and the GI50 [17] was > 100 µM (inactive). For the same compound, the GI50 [18] was > 100 µM (inactive), the GI50 [19] was > 100 µM (inactive) and the GI50 [20] was 80.7 µM (inactive). The GI50 [21] was > 100 µM (inactive), the GI50 [23] was > 100 µM (inactive) and the GI50 [24] was > 100 µM (inactive). The GI50 [25] was 23.7 µM (inactive), the GI50 [26] was > 100 µM (inactive) and the GI50 [27] was 90.2 µM (inactive). For the same compound, the GI50 [57] was > 100 µM (inactive), the GI50 [28] was 53.5 µM (inactive) and the GI50 [29] was > 100 µM (inactive). The GI50 [58] was > 100 µM (inactive), the GI50 [30] was > 100 µM (inactive) and the GI50 [31] was > 100 µM (inactive). The GI50 [32] was > 100 µM (inactive), the GI50 [33] was > 100 µM (inactive) and the GI50 [34] was > 100 µM (inactive). The GI50 [35] was > 100 µM (inactive), the GI50 [36] was > 100 µM (inactive) and the GI50 [37] was 23.4 µM (inactive). The GI50 [38] was > 100 µM (inactive), the GI50 [39] was > 100 µM (inactive) and the GI50 [40] was > 100 µM (inactive). For the same compound, the GI50 [41] was > 100 µM (inactive), the GI50 [42] was > 100 µM (inactive) and the GI50 [43] was > 100 µM (inactive). For the same compound, the GI50 [44] was > 100 µM (inactive), the GI50 [45] was > 100 µM (inactive) and the GI50 [46] was 72.3 µM (inactive). The GI50 [47] was > 100 µM (inactive), the GI50 [48] was > 100 µM (inactive) and the GI50 [49] was > 100 µM (inactive). For the same compound, the GI50 [50] was > 100 µM (inactive), the GI50 [51] was > 100 µM (inactive) and the GI50 [52] was > 100 µM (inactive). For the same compound, the GI50 [53] was > 100 µM (inactive), the GI50 [54] was > 100 µM (inactive) and the GI50 [55] was 47.1 µM (inactive). For the same compound, the GI50 [56] was > 100 µM (inactive).
